Source: ChEMBL document CHEMBL1641537, “Chalcone-based inhibitors against hypoxia-inducible factor 1--structure activity relationship studies” (Bioorg Med Chem Lett, 2011)

Assay: Inhibition of cobalt chloride-induced HIF-1 activation expressed in mouse NIH3T3 cells after 8 hrs by luciferase reporter gene assay
Assay type: cell-based
Details: NIH3T3, 8 h

Structure (SMILES)	IC50
O=C(/C=C/c1ccccc1)c1ccc(F)cc1	> 20 µM
O=C(/C=C/c1ccccc1O)c1ccccc1	> 20 µM
COc1cc(O)c(C(=O)/C(C)=C/c2ccccc2)c(OC)c1	> 20 µM
COc1cc(O)c(C(=O)/C=C/c2ccccc2Br)c(OC)c1	11.6 µM
Cc1ccc(C(=O)/C=C/c2ccccc2)cc1	> 20 µM
COc1cc(O)c(C(=O)/C=C/c2ccccc2C)c(OC)c1	9.9 µM
COc1cc(O)c(C(=O)/C=C/c2cccc(Br)c2)c(OC)c1	2.2 µM
COc1cc(O)c(C(=O)/C=C/c2cccc(C)c2)c(OC)c1	3.6 µM
COc1cc(O)c(C(=O)/C=C/c2ccc(F)cc2)c(OC)c1	> 20 µM
O=C(/C=C/c1ccccc1)c1ccc(F)c(F)c1	> 20 µM
O=C(/C=C/c1ccccc1)c1ccc(C(F)(F)F)cc1	> 20 µM
CCCOc1ccc(/C=C/C(=O)c2c(O)cc(OC)cc2OC)cc1	12 µM
COc1cc(O)c(C(=O)/C=C/c2ccc(Cl)cc2)c(OC)c1	> 20 µM
O=C(/C=C/c1ccc(O)cc1)c1ccccc1 [4-HYDROXYCHALCONE]	> 20 µM
O=C(/C=C/c1ccc(O)c(O)c1)c1ccc(O)cc1O [BUTEIN]	> 20 µM
COc1cc(/C=C/C(=O)CC(=O)/C=C/c2ccc(O)c(OC)c2)ccc1O [CURCUMIN]	9.6 µM
COc1ccc(/C=C/C(=O)c2c(O)cc(OC)cc2OC)cc1 [FLAVOKAWAIN A]	11 µM
COc1cc(O)c(C(=O)/C=C/c2ccccc2)c(OC)c1 [FLAVOKAWAIN B]	3.3 µM
COc1cc(O)c(C(=O)/C=C/c2ccc(O)cc2)c(OC)c1 [FLAVOKAWAIN C]	3.1 µM
CC(C)=CCc1c(O)cc(C(=O)[C@H]2[C@@H](c3c(O)ccc(C(=O)/C=C/c4ccc(O)cc4O)c3O)C=C(C)C[C@@H]2c2ccc(O)cc2O)cc1O [KUWANON J]	4.1 µM
CC(C)=CCc1c(O)cc(C(=O)[C@H]2[C@@H](c3c(O)ccc(C(=O)/C=C/c4ccc(O)cc4)c3O)C=C(C)C[C@@H]2c2ccc(O)cc2O)cc1O [KUWANON R]	3.2 µM
CC(C)=CCc1c(O)cc(C(=O)[C@H]2[C@@H](c3c(O)ccc(C(=O)/C=C/c4ccc(O)cc4)c3O)C=C(C)C[C@@H]2c2ccc(O)cc2)cc1O [KUWANON V]	8.3 µM
